Assay results: US20250319053A1, “INHIBITORS OF THE PEPTIDYL-PROLYL CIS/TRANS ISOMERASE (PIN1), COMBINATIONS AND USES THEREOF” (DANA-FARBER CANCER INSTITUTE, INC., priority 2021, published 2025)

What was measured:
[1] = test system: PDAC tumors in GDA mice; assay: KPC mouse-derived orthotopic allograft (GDA) mouse model; assay type: in vivo
Description: 2) the KPC Genetically engineered mouse-derived orthotopic allografts (GDA) mouse model (Hingorani et al., Cancer Cell 7, 469-483 (2005); Li et al., Comput Struct Biotechnol J 17, 498-506 (2019)). Mouse PDAC cells were established from KPC mouse pancreatic tumor tissues, followed by orthotopically injecting 1×10^6 mouse PDAC cells in 50 μL Matrigel (356231, Coaning) into the pancreas of female 8 week-old syngeneic immunocompetent C57BL/6 mice (Jackson Laboratories). 3) PDAC Patient-derived Tumor orthotopic xenografted (PDTX) mouse model (Gilles et al., Clin Cancer Res 24, 1734-1747 (2018); Rubio-Viqueira et al., Clin Cancer Res 12, 4652-4661 (2006)). PDAC PDX tumors were obtained from Dr. Muthuswamy and Dr. Hidalgo and divided into 4×2 mm pieces, followed by xenografting orthotopically into the pancreas of female 8-week-old immunodeficient NOD.Cg-Prkdc^scid Il12rg^tm1Wjl/SzJ (NOD scid gamma; NSG) mice (Jackson Laboratories). 4) PDAC Patient-derived Organoid and CAFs orthotopic xenograft (PDOX) mouse model (Dantes et al., JCI Insight 5, 137809 (2020); (Koikawa et al., Cancer letters 425, 65-77 (2018)). 5×10^4 patient derived PDAC organoids and 5×10^4 patient derived CAFs in 50 μL of Matrigel were injected orthotopically into the pancreas of female 8 week-old immunodeficient NSG mice (Jackson Laboratories).
Briefly, all mice were randomly selected to receive treatments groups. Tumor sizes were measured by weekly palpation with electronic caliper or ultrasound, and when tumors were reached >0.5 cm, the treatment was started. Briefly, animals were placed under general anesthesia with 2%-3% isoflurane once a week. Under general anesthesia, the abdominal wall became very flaccid, and the muscle tone of the mouse was very low. The mouse was scuffed with the left hand to allow for palpation and measurement with the right hand. This allowed to detect the firm pancreatic mass by palpation, and to determine its size by electronic caliper measurements. […] In the transgenic KPC mice, where spontaneous tumor development was expected, weekly palpation was started from age 8 weeks. When the tumor by palpation after age 12 weeks could not be detected, the mice were monitored by ultrasound. Once the maximum length >0.5 cm tumor was detected, the mice were randomized to treatment, and then followed tumor growth by electronic caliper measurement. To validate the external caliper measurements, the tumor size was measured prior to euthanization of the mice and then measured the actual tumor size upon necropsy to ascertain concordance. […] To evaluate the effects of CD8+ T cell or NK1.1′ cell depletion in GDA mice, mice were treated with anti-CD8 (200 μg, i.p., twice a week, BE0117, BioXcell) (Pantelidou et al., Cancer Discov. 9, 722-37 (2019)) or anti-NK1.1 (25 μg, i.p., twice a week, BE0036, BioXcell) (Waggoner et al., Nature 481, 394-398 (2011)), or vehicle (IgG isotype control), and/or Sulfopin (40 mg/kg, i.p., every day) (Pin1i−2) or vehicle (Sulfopin diluted solution; 5% NMP, 5% Solutol, 20% DMSO), and/or anti-PD1 (200 μg, i.p., every 3-4 days, BE0146, BioXcell) or vehicle (IgG isotype control). To test Sulfopin and/or PTX and/or anti-CTLA4 combination treatment in GDA mice, mice were treated with Sulfopin (40 mg/kg, i.p., every day) (Pin1i−2) or vehicle (Sulfopin diluted solution; 5% NMP, 5% Solutol, 20% DMSO), and/or PTX (10 mg/kg i.p., weekly) or vehicle (PTX diluted solution; 10% DMSO, 40% PEG300, 5% Tween 80, 45% Saline), and/or anti-CTLA-4 (250 μg, i.p., every 3-4 days, BE0032, BioXcell) or vehicle (IgG isotype control).

[2] = test system: human PDAC organoids; assay: Organoid apoptosis assay (caspase 3/7) with GEM or 5-FU; assay type: cell-based
Description: The organoids were isolated from Matrigel using collagenase, and seed Matrigel coated 96 well plate, and then treated with control (PBS) or GEM, or control (DMSO) or 5-FU, followed by assaying organoid apoptosis using fluorescent caspase 3/7 and live-cell time lapse imaging for 24 hr. At the start of coculture, a green-fluorescent caspase 3/7 probe reagent (R37111, Invitrogen) and Hoechst (135102, Invitrogen) was added to visualize cells undergoing apoptosis. Apoptotic organoids were monitored by time lapse imaging using BZ-X800 fluorescence microscope (KEYENCE) and quantified using BZ-X800 analyzer (ver. 1.1.1.8, KEYENCE). […] Synergy scores were calculated by Synergyfinder ver 2 (synergyfinder.fimm.fi/) (Ianevski et al., Nucleic Acids Res. 48 IW1), […]-[…] (2020)).

[3] = GDA mice, FIG. 9A, GEM 20 mg/kg, n=6, vehicle 34 days

Row | Compound | desmoplastic (fibrotic) and immunosuppressive TME ([1]; GDA mice) | CAF activation (IF for αSMA or PDGFRα) ([1]; GDA mice, 4 weeks) | collagen deposition (Sirius Red staining) ([1]; GDA mice, 4 weeks) | Median survival [1, 3] | Median survival ([1]; GDA mice, FIG. 9I, treated up to 150 days, GEM 10 mg/kg weekly, αPD1, n=8, vehicle 36.5 days) | tumor growth ([1]; overt tumor-bearing GDA mice) | apoptosis in WT organoids ([2]; Pin1i−2 at 5 μM 3 days, then GEM at 25 nM for 24 hrs) | GEM-mediated organoid apoptosis ([2]; pre-treated with Pin1i−1 at 10 μM or Pin1i−2 at 5 μM for 72 hrs, then GEM at 25 nM for 24 hrs) | organoid apoptosis, agent alone ([2]; GEM at 25 nM for 24 hrs)
1 | CC(C)(C)CN(C(=O)CCl)C1CCS(=O)(=O)C1 (stereo not shown) [Pin1i−2, sulfopin] | potently reduce the fibrotic TME | significantly reduced | significantly reduced | 56 days | 54 days | significantly reduced tumor growth | induced apoptosis in WT organoids | greatly potentiated GEM-mediated organoid apoptosis | –
2 | Nc1ccn([C@@H]2O[C@H](CO)[C@@H](O)C2(F)F)c(=O)n1 [GEM, gemcitabine, reference compound] | – | – | – | 42 days | – | – | – | – | neither Pin1i nor GEM alone had obvious effect
